Values quoted from earlier work, collected in patent US20030099725A1, “Herbal compositions useful as chemopreventive and therapeutic agents and methods of manufacturing same” (priority 2001, published 2003).

System: women at high risk of breast cancer

CC/C(=C(\c1ccccc1)c1ccc(OCCN(C)C)cc1)c1ccccc1 [Tamoxifen]
decrease in invasive cancer versus placebo: 49%
decrease in non-invasive breast cancer versus placebo: 50%
